Measurements as given in patent US12616698B2, “Methods for reducing liver fat and for treating fatty liver disorders” (Corcept Therapeutics Incorporated, priority 2021, dated 2026).
Entries after “also recorded” stand apart in the source; their conditions may differ.

How the values were obtained:
[1] = test system: patients presumed to have NASH; assay: Phase 2a study: liver volume and liver size by MRI; type: in vivo, human; details: for Percent Change from Baseline in Liver: liver volume
From the text: A Phase 2a, randomized, double-blind, placebo-controlled study (ClinicalTrials.gov Identifier: NCT03823703) was begun to assess the efficacy of two dose levels of miricorilant versus placebo in reducing liver fat in patients who were presumed to have non-alcoholic steatohepatitis (NASH), that presumption based on blood tests and noninvasive measures. Written informed consent was obtained before initiating any study-mandated procedures. The full study was planned to enroll approximately 120 patients, randomized 1:1:1 to receive daily 900 mg miricorilant:600 mg miricorilant: matching placebo.
Patients were randomized in a 1:1:1 ratio to 600 mg miricorilant, 900 mg miricorilant, or placebo. Study drug was administered once daily, orally with 8 oz (240 mL) of water, along with food. Patients were instructed to take a total of 6 tablets at approximately the same time each day. Those in the 600 miricorilant group took 4 miricorilant tablets and 2 placebo tablets. Those in the 900 miricorilant group took 6 miricorilant tablets. Those in the placebo group took 6 placebo tablets. For the week 6 visit, patients were instructed to not take their daily study drug prior to the visit, but to bring their study drug to the site with them so that the study drug can be administered at the site.
MRI images showing the liver of a patient before (left-hand images) and after receiving daily 600 mg miricorilant (right-hand images) are presented in FIGS. 3A, 3B, and 3C.

[2] = test system: C57BL/6J male mice; assay: AMLN diet NASH mouse model, once per day oral dosing; type: in vivo; details: 30 mg/kg/day orally once per day, 8 weeks
Procedure: Two studies were conducted in C57BL/6J male mice (n=12 per group) maintained on a diet high in fat (40%), cholesterol (2%) and fructose (20%; referred to as the AMLN diet: see, e.g., Tolbol et al., World Journal of Gastroenterology, 24(2):179-194 (2018)) for 42 weeks before dosing with miricorilant was initiated. In the first study, all animals ate the AMLN diet, and received either placebo, 30 mg/kg miricorilant, or 60 mg/kg mifepristone once per day orally. […] All animals received the AMLN diet for 42 weeks prior to receiving their first dose of study drug or placebo. 4 weeks prior to receiving that first dose, a liver biopsy and histological examination of biopsy tissue was performed for each animal; 3 weeks prior to receiving that first dose, animals were randomized into three groups: control, miricorilant, or mifepristone. […] At 56 days (week 8) after initiation of drug administration, plasma ALT, AST, triglycerides, total cholesterol, and miricorilant levels were measured, and animals were sacrificed, liver necropsies were performed, liver histological ((NAFLD Activity Score, Fibrosis Stage, steatosis (scored using hematoxylin and eosin staining (HE)), col1a (scored using immunohistochemistry (IHC)) and Galectin-3 (IHC)) and liver biochemical measurements (including liver triglycerides and total cholesterol) were made, and liver and plasma samples were obtained for genetic ((e.g., RNA sequencing) and other analyses.
Thus, in these studies, the mice were subjected to a liver biopsy approximately 4 weeks before initiation of dosing with miricorilant and only mice with confirmed fibrosis (fibrosis stage ≥1) and steatosis (score ≥2) were entered into the study. […] Body weight and food consumption were monitored throughout the study.
Liver samples were fixed in formalin, paraffin embedded and sections were stained with hematoxylin and eosin (H&E) and Sirius Red. Samples were scored for NAS and fibrosis stage using the clinical criteria outlined by Kleiner et al., Hepatology 41:1313-1321 (2005). […]

Structure (SMILES): O=c1[nH]c(=O)c(Cc2cccc(C(F)(F)F)c2)c([C@H]2CC[C@H](c3ccccc3)CC2)[nH]1 [miricorilant, (E)-6-(4-Phenylcyclohexyl)-5-(3-trifluoromethylbenzyl)-1H-pyrimidine-2,4-dione]
- Follow-Up Liver Volume ([1]; Patient 1 (responder), 900 mg, baseline 1606 mL): 1303 mL
- Follow-Up Liver Volume ([1]; Patient 2 (responder), 900 mg, baseline 1675 mL): 1314 mL
- Follow-Up Liver Volume ([1]; Patient 3 (responder), 900 mg, baseline 3857 mL): 3113 mL
- Follow-Up Liver Volume ([1]; Patient 4 (responder), 600 mg, baseline 1899 mL): 1505 mL
- Percent Change from Baseline in Liver ([1]; Patient 1 (responder), 900 mg): −18.9%
- Percent Change from Baseline in Liver ([1]; Patient 2 (responder), 900 mg): −21.6%
- Percent Change from Baseline in Liver ([1]; Patient 3 (responder), 900 mg): −19.3%
- Percent Change from Baseline in Liver ([1]; Patient 4 (responder), 600 mg): −20.7%
- NAFLD Activity Score (NAS) ([2]; AMLN diet, vs control (FIG. 7A)): reduced; also recorded: significant reductions; also recorded: either did not increase, or decreased
- Hepatic ballooning portion of the NAFLD score (liver cell degeneration) ([2]; post- vs pre-study biopsy (FIG. 7B)): reduced
- Fibrosis stage score, post-study compared to pre-study ([2]; none showed an increased score): some mice in the miricorilant group showed decreased post-study fibrosis stage score
